Patent US10588919B2, “Materials and methods for the treatment of vascular disease” (THE UNIVERSITY COURT OF THE UNIVERSITY OF EDINBURGH, priority 2015, dated 2020)

Tests used:
Assay type in all cases: cell-based, human
[1] = test system: LncRNA 2 (SMILR) expression; assay: MEKK1 and p38 inhibitor studies: LncRNA 2 (SMILR) expression by qRT-PCR in IL1α/PDGF-stimulated HSVSMC; details: 24 h; for LncRNA 2 expression in the presence of IL1 and PDGF: HSVSMC, 60 minute pre-treatment, 10, 15 and 20 μM AZD6244, 5, 10 and 20 uM SB 203580; for induction of SMILR expression in response to PDGF and IL1α: VSMC, 60 min pre-treatment, AZD6244 5, 10 or 15 μM, SB203580
Experimental: For gene expression analysis, cDNA for mRNA analysis was obtained from total RNA using the Multiscribe Reverse Transcriptase (Life technologies, UK). qRT-PCR was performed using Power SYBR green (life technologies, UK) with custom PCR primers (Eurofins, MWG, Ebersberg, Germany) the specificity of these primers was confirmed by performing a melting curve and running their PCR produce on a gel (Table 1-primer sequences). Ubiquitin C (UBC) was selected as housekeeping gene due to its stability across all groups studied. Fold-changes were calculated using the 2^-ΔΔCt method (Livak and Schmittgen 2001-http://www.ncbi.nlm.nih.gov/pubmed/11846609; analysis of relative gene expression data using real-time quantitative PCR and the 2(-Delta Delta C(T)) method. Methods 2001;25;402-8). For inhibitor studies, […] were plated at 1×10^5 cells in 6 well plates and quiesced for 48 h. […] Cells were then stimulated with either 0.2% media or a combination of IL1α and PDGF for 24 hours for RNA quantification or western blot analysis.

ZHX2 = ZHX2 expression by qRT-PCR in HSVSMC; details: SMILR knockdown
Experimental: (§1) For gene expression analysis, cDNA for mRNA analysis was obtained from total RNA using the Multiscribe Reverse Transcriptase (Life technologies, UK). qRT-PCR was performed using Power SYBR green (life technologies, UK) with custom PCR primers (Eurofins, MWG, Ebersberg, Germany) the specificity of these primers was confirmed by performing a melting curve and running their PCR produce on a gel (Table 1—primer sequences). Ubiquitin C (UBC) was selected as housekeeping gene due to its stability across all groups studied. Fold-changes were calculated using the 2^−ΔΔCt method (Livak and Schmittgen 2001—http://www.ncbi.nlm.nih.gov/pubmed/11846609; analysis of relative gene expression data using real-time quantitative PCR and the 2(-Delta Delta C(T)) method. Methods 2001;25;402-8). […] Following the 48 stimulation cells were RNA extracted as described earlier or fixed in 70% ethanol for EdU FACs analysis. EdU incorporation was visualized using Click-iT Alexa Fluor 594 according to the manufacturers protocol (Invitrogen).

HAS2-AS1 = HAS2-AS1 expression by qRT-PCR in HSVSMC; details: SMILR knockdown
Experimental: as §1

SMILR = assay: RNA-FISH of SMILR transcripts in HSVSMC
Text: Custom RNA-FISH tiled probe sets were generated to all exons of […] FISH utilises “branch tree” technology. Briefly, a target specific probe set, containing 40 oligo probes, hybridises to the target mRNA as 20 oligo pairs. Each oligo pair forms a required platform for assembly of the signal amplification structure (tree) through a series of sequential hybridisation steps. Each fully assembled structure, covers a space of 40-50 nt of the target RNA, and has the capacity for 400-fold signal amplification. Therefore, a typical RNA probe set (containing 20 oligo pairs) has the capacity to generate 8,000-fold signal amplification. Due to this technology the company confirms single-molecule RNA sensitivity, thus each fluorescent signal corresponds to an individual lncRNA molecule. Control SNORD3 and UBC were used as housekeepers to determine spatial location of LncRNA2 (Panomics, Affymetrix). RNA-FISH was performed according to manufacturer's instructions (ViewRNATM cell FISH) with minor modifications for both cell and tissue experiments. For cellular analysis […] were grown on 16mm coverslips to 80% confluency, washed in PBS and fixed in 4% paraformaldehyde supplemented with 1% glacial acetic acid. Following detergent QS permeablisation and 1:6000 protease digest coverslips were incubated with a combination of UBC and LncRNA 2 probe sets or UBC. […]

HSVSMC proliferation = assay: EdU incorporation (proliferation) of HSVSMC stimulated with IL1α/PDGF
HAS3 = HAS3 expression by qRT-PCR in HSVSMC; details: SMILR knockdown
Experimental: as §1

SMILR (LncRNA 2) = assay: dsiRNA-mediated knockdown of SMILR in HSVSMC, qRT-PCR
Experimental: as §1

HAS2 = HAS2 expression by qRT-PCR in HSVSMC; details: SMILR knockdown
Experimental: as §1

[2] = test system: interferon pathway (OAS1, IRF7); assay: qRT-PCR of interferon response genes OAS1 and IRF7 after dsiRNA; details: dsiRNA off target effects
Experimental: For gene expression analysis, cDNA for mRNA analysis was obtained from total RNA using the Multiscribe Reverse Transcriptase (Life technologies, UK). qRT-PCR was performed using Power SYBR green (life technologies, UK) with custom PCR primers (Eurofins, MWG, Ebersberg, Germany) the specificity of these primers was confirmed by performing a melting curve and running their PCR produce on a gel (Table 1—primer sequences). Ubiquitin C (UBC) was selected as housekeeping gene due to its stability across all groups studied. Fold-changes were calculated using the 2^−ΔΔCt method (Livak and Schmittgen 2001—http://www.ncbi.nlm.nih.gov/pubmed/11846609; analysis of relative gene expression data using real-time quantitative PCR and the 2(-Delta Delta C(T)) method. Methods 2001;25;402-8).

HAS1 = HAS1 expression by qRT-PCR in HSVSMC; details: SMILR knockdown
Experimental: as §1

Q: Which “LncRNA 2 expression in the presence of IL1 and PDGF” value [1] does the source give for `Cn1cnc2c(F)c(Nc3ccc(Br)cc3Cl)c(C(=O)NOCCO)cc21` [AZD6244] here?
A: The value was “completely inhibited”.

Q: And the “induction of SMILR expression in response to PDGF and IL1α” value [1]?
A: The value was “prevented the induction”.

Q: How did the “LncRNA 2 expression in the presence of IL1 and PDGF” value [1] turn out when `C[S+]([O-])c1ccc(-c2nc(-c3ccncc3)c(-c3ccc(F)cc3)[nH]2)cc1` (stereo not shown) [SB 203580] was run?
A: Its value is “completely inhibited”.

Q: What about the “induction of SMILR expression in response to PDGF and IL1α” value [1] of the same compound?
A: Its value is “dose-dependent reduction”.

Q: Which results are given for “DsiRNA SMILR: Double stranded dicer substrate siRNA targeting LncRNA 2 (SMILR); probably sense SEQ ID NO: 1, antisense SEQ ID NO: 2 (sense CCAUAAUUUACAUGGAUGUU; antisense UUCCAAACAUCCAUGUAAAUUAUGGAA; listed as RNA, chemistry not fully specified)”?
A: ZHX2 gene expression (ZHX2): no change; HAS2-AS1 lncRNA expression (HAS2-AS1): no change; SMILR transcripts (RNA-FISH) (SMILR): decrease; VSMC proliferation reduced (EdU incorporation) (HSVSMC proliferation; SMILR knock down with dsiRNA, IL1/PDGF 48 h, vs Si Control): 56±15%; SMC proliferation following stimulation with IL1/PDGF (EdU incorporation) (HSVSMC proliferation; dsiRNA mediated knockdown of LncRNA 2): inhibited; HAS3 expression (HAS3): no effect; decrease in SMILR expression compared to dsiControl (SMILR (LncRNA 2); 25 nM dsiRNA, IL1α/PDGF 48 h): 75±24%; LncRNA 2 (SMILR) expression after dsiRNA transfection (SMILR (LncRNA 2); IL1/PDGF, qRT-PCR): significant decrease; HAS2 mRNA levels (HAS2): significantly inhibits; HAS2 mRNA levels (HAS2; listed as SMILR siRNA): significantly altered; effect on the interferon pathway (response genes OAS1 and IRF7) [2]: No effect; HAS1 expression (HAS1): no effect
